# Reference: patent US8309534B2, “Compositions comprising a GPR109 ligand for treating disorders of the digestive tract and/or cancer” (Medical College of Georgia Research Institute, Inc., priority 2007, dated 2012)
# “Also recorded” adds a separate entry of the source.
# Assays:
# [1] = test system: GPR109A expression in human colon cancer cell lines; assay: GPR109A mRNA expression in colon cancer cell lines by semi-quantitative RT-PCR; assay type: cell-based; settings: 2 μg/ml, 72 h
# Method: HPRT1 mRNA was used as an internal control. […] Steady-state levels of mRNAs for DNMT1, DNMT3a, DNMT3b, and HPRT1 were monitored in normal human colon tissues and in human colon cancer tissues by semi-quantitative RT-PCR. […] Three different colon cancer cell lines were treated with procainamide, a specific inhibitor of DNMT1, and the expression of GPR109A was monitored in cells treated with or without the inhibitor.
# [2] = test system: LPS-induced activation of NF-κB promoter in vector-transfected KM12L4 cells; assay: LPS-induced NF-κB promoter reporter in vector-transfected KM12L4 cells (no GPR109A); assay type: cell-based, human; settings: ligand 1 mM 8 h, LPS 100 ng/ml 4 h
# Text: (§1) The anti-inflammatory effect of butyrate was monitored in colonic cells by its ability to suppress LPS-induced activation of NF-κB promoter with luciferase as the reporter. The participation of SLC5A8 and GPR109A in mediating the effects of extracellular butyrate was differentiated first by using specific ligands. If SLC5A8 is involved in the process, the transporter-facilitated entry of butyrate followed by inhibition of histone deacetylases (HDACs) inside the cells would be responsible for the effects. If GPR109A is involved in the process, the activation of the receptor by extracellular butyrate would be responsible for the effects. […] In these experiments, cells were first transfected with the construct carrying the NF-κB-luciferase, pretreated with GPR109A ligands (1 mM) for 8 h and then exposed to LPS (100 ng/ml) for 4 h. Following the treatment, cell lysates were used to measure luciferase activity as a read-out for activation of NF-κB.
# (§2) The cells were transfected with either empty vector or human GPR109A cDNA. […] We cloned the human GPR109A cDNA by RT-PCR using mRNA prepared from human colon, and subcloned the RT-PCR product into pcDNA vector under the control of the cytomegalovirus promoter. The insert was sequenced to confirm its molecular identity. […] The activation of the receptor was monitored by measuring the activity of a K^+-channel.
# [3] = test system: LPS-induced NF-κB promoter activity in KM12L4 cells with ectopic expression of GPR109A; assay: LPS-induced NF-κB promoter reporter in KM12L4 cells transfected with human GPR109A cDNA; assay type: cell-based; settings: ligand 1 mM 8 h, LPS 100 ng/ml 4 h
# Text: as §1, §2
# [4] = test system: bone marrow-derived dendritic cells; assay: Development of bone marrow-derived dendritic cells (FACS); assay type: cell-based; settings: mouse bone marrow cells, ligand 1 mM, 4 days
# Method: In these experiments, mouse bone marrow cells were collected and cultured in the presence of various ligands (1 mM) for 4 days. Following this, FACS (fluorescence activated cell sorting) was used to identify the fraction of various immune cell types in the sample.
# [5] = test system: LPS-induced NF-κB promoter activity in HCT116 cells; settings: HCT116, no expression of GPR109A
# Text: as §1
# (§3) Additionally, two different isogenic cell lines of the human colon cancer cell line HCT116, one with normal expression of the DNA methyltransferase I(DNMT1) and the other with deletion of the gene coding for the enzyme (HCT116-DNMT1^−/−) were used.
# [6] = test system: LPS-induced NF-κB promoter activity in HCT116-DNMT1−/− cells; settings: GPR109A expressed
# Text: as §1, §3
# [7] = test system: LPS-induced activation of NF-κB promoter in CCD841 cells; settings: ligand 1 mM 8 h, then LPS 100 ng/ml 4 h, luciferase
# Text: as §1
# [8] = test system: vector-transfected KM12L4 cells; settings: 0.5 mM, 24 h
# [9] = test system: Colon cancer cell line SW480; assay: Apoptosis of colon cancer cells with octanoate (propidium iodide FACS); assay type: cell-based; settings: human colon cancer cell line (SW480); varying concentrations, 24 or 48 h
# Method: Colon cancer cell line SW480 was cultured in the presence of varying concentrations of octanoate for 24 or 48 h, and then cells were fixed in ethanol, stained with propidium iodide, and subjected to FACS analysis to determine the percent of cells undergoing apoptosis. Sub G0/1 cells were quantitated using Cell Quest program and values are expressed as mean+SEM.
# [10] = test system: human breast cancer cell line; assay: Apoptosis of human breast cancer cell line with octanoate; assay type: cell-based; settings: human breast cancer cell line expressing GPR109B
# Text: The GPR109B receptor isoform is unique to humans. Its expression is not reduced in cancer. Its ligand specificity is different from that of GPR109A. One of the ligands which has relatively high affinity for GPR109B is the medium-chain fatty acid octanoate. This ligand was used to see if this receptor isoform can be used to kill tumor cells. […] Two cancer cell lines, a human colon cancer cell line and a human breast cancer cell line were studied. Both these cell lines express GPR109B because the expression of this receptor isoform is not affected in cancer. […] Thus, another embodiment provides a method for treating cancer by administering to a subject an effective amount of a ligand for GPR109B to promote apoptosis in tumor cells optionally in combination with a second therapeutic agent. A preferred ligand is octanoate or a derivative thereof.
smiles,measurement,setting,value
Nc1ncn([C@@H]2O[C@H](CO)[C@@H](O)[C@H]2O)c(=O)n1 [5-azacytidine],effect on GPR109A expression,[1],the expression of the gene is induced
same,effect on GPR109A expression,[1]; listed as 5′-azacytidine,re-activates the expression of the receptor
"CC(C)n1nnc2cc(C(=O)O)ccc21 [IPBT, 1-isopropyl-benzotriazole-5-carboxylic acid]",effect on LPS-induced activation of NF-κB promoter,[2],did not have any effect
same,effect on LPS-induced NF-κB promoter activity,[3],did not have any effect
CC(=O)O [acetate],effect on development of dendritic cells,[4],had no effect
CC1(c2ccccc2)OC(C(=O)O)=CC1=O (stereo not drawn) [acifran],effect on LPS-induced activation of NF-κB promoter,[2],did not have any effect
same,effect on LPS-induced NF-κB promoter activity,[3],marked suppression
same,effect on LPS-induced NF-κB promoter activity,[5],none of these compounds had any significant effect
same,effect on LPS-induced NF-κB promoter activity,[6],suppressed LPS-induced promoter activity
"O=C(O)c1cccnc1 [nicotinate, nicotinic acid]",effect on LPS-induced activation of NF-κB promoter,[7],able to block LPS-induced activation of NF-κB promoter
same,effect on development of dendritic cells,[4],had no effect
same,change in expression of genes involved in apoptosis and cell cycle,[8],do not exhibit any change in the expression of various genes
CCCCCCCC(=O)O [octanoate],apoptosis,[9],induced apoptosis; also recorded: leads to apoptosis in a dose-dependent manner
same,apoptosis,[10],leads to apoptosis in a dose-dependent manner
CCC(=O)O [propionate],effect on development of dendritic cells,[4],able to block the development
